Measurements: a melting point compilation (Tetko et al.; mined from patent text by program, amines drawn as free bases though some values may be those of a salt)

Row | SMILES | melting point
1 | C#CCN(Cc1ccc2nc(NC(=O)C(C)(C)C)[nH]c(=O)c2c1)c1ccc(C#N)cc1 | 183 to 186 °C
2 | Cc1ccc(-c2ccc3c(c2)C=C(C(=O)Nc2ccc(C(=O)C4CCCCN4C(=O)OC(C)(C)C)cc2)CCO3)cc1 (centres undefined) | 223 to 224 °C
3 | O=C1N=NC(=O)c2c1[nH]c1cc(Cl)ccc21 | > 250 °C
4 | CN1C(=O)CN=C(c2cccc(Cl)c2)c2cc(C(=O)c3ccc(Cl)cc3)ccc21 | 176 °C
5 | CCOC(=O)c1cn(C(c2ccccc2)(c2ccccc2)c2ccccc2)cn1 | 163 to 164 °C
6 | CCOC(=O)c1cnc2c(F)c(F)c(F)cc2c1Cl | 110 to 112 °C
7 | O=S(=O)(/C=C/c1ccc(F)cc1F)CS(=O)(=O)/C=C/c1ccc(F)cc1F | 193 to 195 °C
8 | COc1ccc2cc(CNc3ccc(O)cc3)ccc2c1 | 139 to 140 °C
9 | COc1ccc2c(c1)CCC(c1ccccc1)=C2c1ccccc1 | 98 to 101 °C
10 | CN(CCCCCCCC(=O)O)c1cnc(-c2ccccc2)c(-c2ccccc2)n1 | 116 to 117 °C
11 | CC(C)n1cc(Nc2nc(-c3ccc4cn[nH]c4c3)cn3ccnc23)cn1 | > 250 °C
12 | COc1ccc(CN(C)CCCc2ccc(NC(=O)c3cccc4c(=O)cc(-c5ccccc5)[nH]c34)cc2)cc1OC | 180 °C
13 | NC(=O)c1sc2nccc(N3CCCN(c4ccccc4)CC3)c2c1N | 215 to 218 °C
14 | CC(C)(C)OC(=O)N1CCc2c(n(CCO)c3c(Cl)ccc(Cl)c23)CC1 | 156 to 158 °C
15 | O=C(Nc1ccc(-c2ccccc2)cc1C(=O)O)OCc1cc2cc(-c3ccccc3)ccc2o1 | 226 °C
16 | COc1cccc(-c2ccc(C(O)C(F)(F)F)cc2)c1 (centres undefined) | 108 °C
17 | COC(=O)c1cccc2nc(SCCCN3CCCN(CC(=O)Nc4c(C(C)C)cccc4C(C)C)CC3)oc12 | 83 to 85 °C
18 | COc1cc(C#N)ccc1C1=CC(C)(C)Oc2ccc(C#N)cc21 | 137 to 139 °C
19 | COc1ccc(C=O)cc1CN1C(=O)c2ccccc2C1=O | 109 to 111 °C
20 | Cc1nc(-n2ccc(O)cc2=O)sc1C(=O)NCc1ccncc1 | 275 to 278 °C
21 | COc1cc2cc3c(=O)c(C#N)c[nH]c3cc2cc1O | > 300 °C
22 | CCn1ncc2c3c(NCc4ccc(OC)c(Cl)c4)nnc(-n4cnc(C(=O)NC)c4)c3cnc21 | 181 to 183 °C
23 | CNC(=O)N(C)c1cc(C)on1 | 77 to 78 °C
24 | COc1ccc(CSc2ccc([N+](=O)[O-])cc2C(=O)O)cc1 | 200 to 204 °C
25 | CC(C)C[C@H](NC(=O)CCC(=O)c1ccccc1)C(=O)N[C@@H](C(C)C)[C@@H](O)c1c(-c2ccccc2)c1=O | 83 to 88 °C

Row | SMILES | melting point
26 | c1ccc(N2CCN(c3nc4cccc5c4n3CCC5)CC2)cc1 | 168 to 169 °C
27 | CCN(CC)C(=O)COc1cc(-c2ccccc2)cc2ccccc12 | 82 °C
28 | O=C(Nc1ccc(CCNc2ncccn2)cc1)c1cccs1 | 191 to 192 °C
29 | OCCn1cnc2c(NCCN3CCC(Nc4nc5ccccc5n4Cc4ccc(F)cc4)CC3)ncnc21 | 169 °C
30 | C#Cc1cn(-c2c(Cl)cc(C(F)(F)F)cc2Cl)nc1C(F)(F)F | 95 to 98 °C
31 | CCN(CC)CCCNC(=O)Cn1c(-c2ccc(Cl)cc2)nc2cccnc21 | 172 to 174 °C
32 | Cn1nc(-c2ccc(Cl)cc2)nc1-c1ccncc1 | 191 °C
33 | O=C(Nc1ccc(Br)cn1)Nc1cccc2c1C1CCCCN1C2=O (centres undefined) | 225 °C
34 | NCCOc1ccc2[nH]c3ccccc3c2c1 | 145 to 146 °C
35 | COc1ccc(-c2cc(=Nc3c(C)cc(C)cc3C)n(C)c(N(C)Cc3ccccc3)n2)cc1OC | 96 to 98 °C
36 | CC(C)COc1ccc(C(=O)N/C(=C\c2ccc(C(C)C)cc2)C(=O)NCCO)cc1 | 178 to 180 °C
37 | CC(=NOCCOc1ccc(CC2SC(=O)NC2=O)cc1)c1ccc(-c2ccccc2)nc1 (centres undefined) | 186 to 187 °C
38 | Cc1sc(-n2cccc2C=O)c(C#N)c1C | 154 °C
39 | CCCC1=C(C#N)C(c2ccccc2Cl)c2c(n[nH]c2C2CCCC2)N1 (centres undefined) | > 270 °C
40 | CN(Cc1ccc(S(C)(=O)=O)c(S(N)(=O)=O)c1)S(C)(=O)=O | 165 to 169 °C
41 | Cc1ccn(-c2ccc(C(=O)C3c4ccccc4NC=C4N=NNN43)c(Cl)c2)n1 (centres undefined) | 110 to 114 °C
42 | CCc1cc(OCc2ccc(-c3ccccc3-c3nnn(C(c4ccccc4)(c4ccccc4)c4ccccc4)n3)cc2)c2c(n1)CCN(C(C)=O)C2 | 97 to 98 °C
43 | CC(C)(C(=O)O)c1ccc(C(=O)Nc2cn3cc(-c4ccsc4)ccc3n2)cc1 | 304 to 306 °C
44 | Cn1c(SCc2ccccc2)nc2cnc3ccccc3c21 | 160 to 163 °C
45 | O=C(c1cc(I)c(O)c(I)c1)c1c(Cc2ccccc2)oc2ccccc12 | 153 to 154 °C
46 | CCc1nn(C2CCCC2)c2cc(C(=O)Nc3cccnc3)ccc12 | 133 to 135 °C
47 | Cc1cc(Cl)ccc1N=Cc1ccc(Cl)cc1 | 75 to 76 °C
48 | CCOC(=O)c1cc(-c2ccc(OC)cc2)n(-c2ccc(OC)cc2)n1 | 97 to 98 °C
49 | Clc1cnc(N2CCNCC2)c(Cl)n1 | 89 to 97 °C
50 | CN1CC(c2cc[nH]n2)CC2c3cccc4[nH]cc(c34)CC21 (centres undefined) | 160 to 162 °C

Row | SMILES | melting point
51 | CC1(C)OC(=O)N=C1c1ccccc1 | 106 to 108 °C
52 | O=S(=O)(c1ccc(Br)cc1)N1CCCC1c1ccc(F)cc1 (racemic) | 131 °C
53 | CC(=O)c1ccc(S(=O)(=O)NCc2ccccc2-c2ccccc2C(=O)NCCc2ccccc2)cc1 | 145 °C
54 | O=c1oc2ccccc2c(OCCCN2CCOCC2)c1-c1ccccc1 | 82 °C
55 | O=C1NC(=O)C(c2cccs2)O1 (centres undefined) | 138 to 140 °C
56 | O=C(O)CCCc1cc2nc(Cl)ccc2n1S(=O)(=O)c1ccc2c(c1)CCO2 | 225 °C
57 | CCOC(=O)c1ncn2c1[C@@H]1CCCN1C(=O)c1sccc1-2 | 212 to 213 °C
58 | Cc1ccccc1N=c1scc(-c2ccc(Cl)c(S(=O)(=O)N(C)C)c2)n1C | 158 to 162 °C
59 | CCCC(=O)NC(=O)C(c1ccccc1)c1ccccc1 | 205 °C
60 | COc1ccc(OC)c2nccnc12 | 145 to 150 °C
61 | O=Cc1c[nH]c2c1ccc1c3cc(Br)ccc3[nH]c12 | > 250 °C
62 | Cc1noc(C)c1Cn1cc(N2C(=O)CN(CCOc3ccccc3)C2=O)cn1 | 117 to 118 °C
63 | O=C(/C=C\[C@H]1CC1(c1ccccc1)c1ccccc1)NCCCCc1cccnc1 | 115 to 116 °C
64 | Clc1ccc(Oc2c(-c3ccco3)sc3cnccc23)cc1 | 75 to 77 °C
65 | COc1cc2c(cc1OC)CC1(CC2)NC(=O)CC(C)C1=O (centres undefined) | 168 to 169 °C
66 | C=Cc1ccc(N2C[C@H](CNC(C)=O)OC2=O)cc1F | 165 to 166 °C
67 | Nc1cccc2cc(-c3nccs3)[nH]c12 | 173 to 174 °C
68 | CC(C)(CO)CCNC(=O)OC(C)(C)C | 75.5 to 76.5 °C
69 | Nc1ncc(-c2cccc(OCc3ccccc3)c2)cc1C(=O)NC1CC1 | 177 to 178 °C
70 | CCOCc1nc2c(N)nc3cccnc3c2n1CCCC(N)=O | 231 to 232 °C
71 | Cc1ccccc1C(=O)Nc1ccc(C(=O)N2CCc3cnoc3-c3ccccc32)cc1 | 257 to 260 °C
72 | CN(C)c1ccc2[nH]c(-c3cc(NC(=O)c4cccc(OCCCCCCC(=O)NO)c4)ccc3Cl)nc2c1 | 140 to 142 °C
73 | O=C(c1ccc(F)c(F)c1)N1CCCC(c2noc(-c3ncc[nH]3)n2)C1 (centres undefined) | 148 to 149 °C
74 | O=C(O)c1cc(F)c(F)cc1NC(=O)c1cc(-c2ccc(Cl)cc2)oc1C(F)(F)F | 337 to 340 °C
75 | CNc1nc(-c2ccccc2)c(-c2ccc(=O)n(C(C)C)n2)s1 | 234 to 236 °C

Row | SMILES | melting point
76 | NC(=O)NCCCCCC1CCSS1 (centres undefined) | 74 to 78 °C
77 | NC(=O)c1cccc2c1CCCc1ccccc1-2 | > 250 °C
78 | CCOCC(=O)C(=CN(CC)CC)c1cccc(C(F)(F)F)c1 | 131 to 133 °C
79 | O=C1c2ccccc2C(=O)N1OCC1OC(n2ccc(=O)[nH]c2=O)CC1O (centres undefined) | 241 to 242 °C
80 | NS(=O)(=O)c1cc(C(=O)O)cc(N2CCCC2)c1Oc1ccccc1 | 214 to 217 °C
81 | CN(C)c1ccc(C(=O)CCCN2CCC(=C(c3ccccc3)c3ccccc3)CC2)cc1 | 110 to 112 °C
82 | COc1ccc(CN(C)CCCCc2ccc(NC(=O)c3cccc4c(=O)c5ccccc5sc34)cc2)cc1OC | 156 °C
83 | CC(C)(C)c1cc(CSCN(O)CSCc2cc(C(C)(C)C)c(O)c(C(C)(C)C)c2)cc(C(C)(C)C)c1O | 98 to 101 °C
84 | CC(=O)Nc1ccc(C(=O)CCC(=O)O)cc1Cl | 168 to 170 °C
85 | Cc1onc(-c2ccccc2)c1C(=O)N(CCN(C)C)c1ccccc1 | 88 to 89 °C
86 | CN(C)C(=S)Oc1ccc(CCCCN)cc1 | 89 to 93 °C
87 | CCN1C(=O)C(C(=O)Nc2cccc(C(=O)Nc3ccccc3)c2)c2cc(C(C)=O)ccc21 (centres undefined) | 173 to 175 °C
88 | CC(C)C(=O)c1c(C(C)(C)C)cc(C=[N+]([O-])C(C)(C)C)cc1C(C)(C)C | 197 to 208 °C
89 | O=S(=O)(O)CCCNC1CCCCCC1 | 341 to 343 °C
90 | O=C1c2cc(Br)sc2SCCN1CCCCCl | 81 to 89 °C
91 | Nc1ccc2c(c1)C(=O)C1(CCOC1=O)S2 (centres undefined) | 187 to 190 °C
92 | O=C1NCCN1c1ccncc1 | 204 to 207 °C
93 | COc1ccc(-c2nc(C(=O)N3CCOCC3)sc2-c2ccc(OC)cc2)cc1 | 118 to 122 °C
94 | CCC(O)c1cccc(S(N)(=O)=O)c1 (centres undefined) | 218 to 220 °C
95 | COCCOc1cc(NC(=O)OC(C)(C)C)c(NC(=O)CC(=O)c2cccc(-n3ccnc3)c2)cc1C#Cc1ccccc1 | 122 to 129 °C
96 | Nc1cccc(C(O)c2cc3c(Oc4ccc(Cl)cc4)cncc3s2)c1 (centres undefined) | 73 to 78 °C
97 | CC(=O)Sc1cc(-c2ccc(C(F)(F)F)n(C)c2=O)c(F)cc1Cl | 91 to 92 °C
98 | Cc1cc(C(=O)NCc2cccc3c2C(=O)N(C2CCC(=O)NC2=O)C3=O)no1 (centres undefined) | 207 to 209 °C
99 | CCOC(=O)N1Cc2ccnnc2C(NN=C(C)C)C1 (centres undefined) | 171 to 174 °C
